Measured values taken from ChEMBL document CHEMBL1201862, “PubChem BioAssay data set” (2004).
Active and inactive are the calls of the source.

Experiments:
[1] = test system: SN12K1; assay: cells; format: functional; conditions: Homo sapiens
[2] = test system: P388/ADR; assay: cells; format: functional; conditions: Mus musculus
[3] = test system: P388; assay: cells; format: functional; conditions: Mus musculus
[4] = cells; format: functional, cell-based
[5] = cells; format: functional, cell-based; remark: listed apart in the source
[6] = molecular target: Cytochrome P450 2C19 (Homo sapiens, UniProt P33261); assay: Cytochrome panel assay with activity outcomes. Panel member name: p450-cyp2c19 Compounds with AC50 equal or less than 10 uM are considered active; format: functional; conditions: read-out: AC50
[7] = molecular target: T1, Cytochrome P450 1A2 (Homo sapiens, UniProt P05177);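 note: PubChem cytochrome P450 panel assay, CYP1A2 panel member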
T1 sequence (P05177 whole entry): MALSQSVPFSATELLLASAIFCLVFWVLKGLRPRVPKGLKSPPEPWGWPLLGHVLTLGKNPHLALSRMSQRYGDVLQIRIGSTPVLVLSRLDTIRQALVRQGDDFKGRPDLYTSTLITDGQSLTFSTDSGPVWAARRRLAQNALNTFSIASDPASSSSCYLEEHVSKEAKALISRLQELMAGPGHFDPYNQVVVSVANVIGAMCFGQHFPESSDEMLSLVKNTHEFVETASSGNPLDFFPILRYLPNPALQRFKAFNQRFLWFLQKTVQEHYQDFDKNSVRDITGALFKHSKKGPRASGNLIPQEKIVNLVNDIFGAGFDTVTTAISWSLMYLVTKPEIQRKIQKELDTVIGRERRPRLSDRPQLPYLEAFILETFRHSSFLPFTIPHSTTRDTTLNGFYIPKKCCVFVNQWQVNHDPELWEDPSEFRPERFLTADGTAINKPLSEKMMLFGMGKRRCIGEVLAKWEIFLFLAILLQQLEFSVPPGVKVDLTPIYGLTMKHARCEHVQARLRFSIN

[8] = molecular target: Cytochrome P450 2D6 (Homo sapiens, UniProt P10635)
[9] = test system: H9c2; assay: cells; format: functional, cell-based; conditions: Rattus norvegicus, H9c2, Myocardium;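 note: confirmatory concentration-response retest of ultra-high-throughput screening hits for modulation of myocardial damage; cell death induced by hydrogen peroxide oxidative stress; compound pretreatment for 60 min then peroxide exposure for 2 h; potency is for protecting the cells against peroxide damage rather than for killing them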
[10] = molecular target: Heat shock protein HSP 90-alpha (Homo sapiens, UniProt P07900); format: functional, organism-based
[11] = HEp-2 cell cytotoxicity, dose response, cytotoxicity control for RSV inhibitor project, HTS (AID 2410); format: functional; conditions: human respiratory syncytial virus
[12] = molecular target: T2, RNA-binding protein pos-1 (Caenorhabditis elegans, UniProt G5EF15); assay: inhibitors of POS-1/mex-3 RNA binding, dose response, biochemical, fluorescence polarization (AID 1964);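 note: purified POS-1 fused to maltose binding protein made in E. coli; potency of compounds blocking POS-1 binding to fluorescent RNA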
T2 sequence (G5EF15 whole entry): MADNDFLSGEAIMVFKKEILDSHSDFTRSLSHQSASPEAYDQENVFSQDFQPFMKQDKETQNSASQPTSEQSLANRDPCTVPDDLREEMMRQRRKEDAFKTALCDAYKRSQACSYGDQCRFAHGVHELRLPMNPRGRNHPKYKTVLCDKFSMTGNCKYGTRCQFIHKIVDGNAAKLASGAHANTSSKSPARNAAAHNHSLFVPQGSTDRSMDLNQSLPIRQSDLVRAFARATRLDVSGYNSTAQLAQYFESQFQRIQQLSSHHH

[13] = NIH-3T3 fibroblast cytotoxicity, dose response, cytotoxicity control, cell-based, fluorescence, Alamar Blue, secondary assay (AID 2327); format: functional;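 note: NIH-3T3 mouse fibroblasts cultured with fluconazole at 8 µg/mL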
[14] = C. albicans growth with fluconazole, confirmation, fluorescence, retest (AID 2467); format: functional, cell-based
[15] = cytotoxicity toward NIH3T3 fibroblasts, dose response, counter-screen, cell-based, ATP luminescence, mouse fibroblasts (AID 2010); format: functional;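 note: cells exposed to compound for about 90 hours before reading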
[16] = inhibitors of intracellular T. cruzi replication, confirmation, NIH3T3 host cells, beta-gal luminescence (AID 2044); format: functional, cell-based;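 note: intracellular parasites grown in NIH/3T3 mouse fibroblasts as host cells; luminescent beta-galactosidase reporter signal from transgenic T. cruzi replicating inside host cells; inhibitors lower the luminescence signal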

Sequence of Cytochrome P450 2C19 (P33261 whole entry): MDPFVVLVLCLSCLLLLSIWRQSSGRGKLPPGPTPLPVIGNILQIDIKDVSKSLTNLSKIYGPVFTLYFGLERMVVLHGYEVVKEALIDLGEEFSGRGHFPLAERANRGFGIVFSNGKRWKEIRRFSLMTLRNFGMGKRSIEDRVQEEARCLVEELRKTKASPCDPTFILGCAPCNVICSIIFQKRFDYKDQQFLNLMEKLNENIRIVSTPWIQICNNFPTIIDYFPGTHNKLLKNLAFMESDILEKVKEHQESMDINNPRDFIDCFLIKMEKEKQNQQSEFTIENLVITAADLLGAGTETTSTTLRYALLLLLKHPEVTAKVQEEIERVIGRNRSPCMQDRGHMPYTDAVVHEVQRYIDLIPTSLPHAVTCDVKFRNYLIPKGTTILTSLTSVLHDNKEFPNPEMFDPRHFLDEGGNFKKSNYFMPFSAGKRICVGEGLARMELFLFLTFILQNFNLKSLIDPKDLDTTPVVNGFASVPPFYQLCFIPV
Sequence of Cytochrome P450 2D6 (P10635 whole entry): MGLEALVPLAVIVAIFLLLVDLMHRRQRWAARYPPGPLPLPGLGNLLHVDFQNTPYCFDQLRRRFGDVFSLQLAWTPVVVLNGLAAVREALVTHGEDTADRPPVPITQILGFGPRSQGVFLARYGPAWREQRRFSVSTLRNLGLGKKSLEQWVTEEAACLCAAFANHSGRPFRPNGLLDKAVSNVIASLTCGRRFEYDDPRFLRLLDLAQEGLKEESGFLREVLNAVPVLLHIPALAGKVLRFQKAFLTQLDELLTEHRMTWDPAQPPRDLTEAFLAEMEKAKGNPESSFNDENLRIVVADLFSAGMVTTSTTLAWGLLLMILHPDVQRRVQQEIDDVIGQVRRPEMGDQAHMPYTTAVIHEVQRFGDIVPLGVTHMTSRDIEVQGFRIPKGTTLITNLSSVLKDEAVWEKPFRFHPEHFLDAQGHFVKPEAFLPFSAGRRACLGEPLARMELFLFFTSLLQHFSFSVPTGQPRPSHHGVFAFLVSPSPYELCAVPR

What does the source list for `Nc1nncs1`?
GI50 [1]: 2120 µM (inactive); GI50 [2]: 665 µM (inactive); GI50 [3]: 711 µM (inactive)

What does the source list for `CC(C(=O)N1CCOCC1)N1c2cccc3cccc(c23)S1(=O)=O` (configuration not stated)?
EC50 [4]: > 350 µM (not active); EC50 [5]: > 350 µM (not active)

Which results are given for `N=C(NOC(=O)C(c1ccccc1)c1ccccc1)c1cccnc1`?
EC50 [4]: > 350 µM (not active); EC50 [5]: > 350 µM (not active)

Which results are given for `CC1=C2C(O)C(C(C)C(=O)N(C)C)CCC2(C)C=CC1=O` (configuration not stated)?
GI50 [1]: > 100 µM (inactive); GI50 [2]: > 100 µM (inactive); GI50 [3]: > 100 µM (inactive)

Which results are given for `CCCc1cc2c(n1Cc1ccc(OC)cc1)C(C)C1CN(C(=O)c3ccccc3)C(C)(C(=O)OC)C21` (configuration not stated)?
AC50 [6]: 0.00631 µM (inconclusive); AC50 [7]: 15.8 µM (inconclusive); AC50 [8]: 39.8 µM (inconclusive)

Which GI50 [1] does the source give for `CC1C(=O)C(C)C(c2ccco2)N(N=O)C1c1ccco1` (configuration not stated) here?
Its GI50 is > 100 µM (inactive).

And the GI50 [2]?
The GI50 was 63.4 µM (inactive).

And the GI50 [3]?
The GI50 was > 100 µM (inactive).

Which IC50 [9] does the source give for `COc1cccc(N2CC(C(=O)NCc3nnc(O)c4ccccc34)CC2=O)c1` (configuration not stated) here?
Its IC50 is > 79 µM (inactive).

Which results are given for `CC1(C)CC(=O)C(CC2C(=O)CC(C)(C)CC2=O)C(=O)C1`?
EC50 [4]: > 350 µM (not active); EC50 [5]: 98.1 µM (active)

For `COc1ccc(S(=O)(=O)N(C(=O)c2ccncc2)c2ccc(OC(=O)c3ccncc3)cc2)cc1`, which AC50 [10] is on record?
The AC50 was 1.65 µM (active).

For `CSc1nnc2c3cc(F)ccc3n(C)c2n1`, which CC50 [11] is on record?
The CC50 was 30 µM (active).

And the AC50 [10]?
Its AC50 is 5.56 µM (active).

With `O=C(NCc1ccco1)c1cc(-c2ccccc2)on1` as the molecule, how does the EC50 [4] read?
The EC50 was > 350 µM (not active).

What about the EC50 [5] of the same molecule?
The EC50 was 62.4 µM (active).

Which EC50 [12] does the source give for `CCOc1ccc(N2C(=O)/C(=C/c3ccco3)C(=O)NC2=S)cc1` here?
Its EC50 is 55.3 µM (active).

Which EC50 [4] does the source give for `CCCCCN(C(=O)CCC(=O)OCC(=O)c1ccc(C(C)CC)cc1)c1c(N)n(CCCC)c(=O)[nH]c1=O` (configuration not stated) here?
Its EC50 is > 350 µM (not active).

And the EC50 [5]?
The EC50 was > 350 µM (not active).

For `Cc1oc(-c2ccc(Cl)cc2)nc1C[S+]([O-])CC(=O)NCCN1CCCCCC1` (configuration not stated), which EC50 [4] is on record?
Its EC50 is > 350 µM (not active).

What about the EC50 [5] of the same molecule?
The EC50 was > 350 µM (not active).

What does the source list for `COc1cccc(/C=N/Nc2cc(-n3nc(C)cc3-c3ccccc3)ncn2)c1O`?
EC50 [4]: > 350 µM (not active); EC50 [13]: 61 µM (active); EC50 [5]: > 350 µM (not active); EC50 [14]: 1.57 µM (active)

With `CC(=O)c1ccc(-c2cnc3c(NC=O)cc(-c4ccc(C(=O)NC5CC5)cc4)cn23)cc1` as the molecule, how does the IC50 [9] read?
Its IC50 is > 79 µM (inactive).

Which AC50 [6] does the source give for `CN(C)c1nc(-c2cccc(NS(C)(=O)=O)c2)nc2ccccc12` here?
The AC50 was 20 µM (inconclusive).

What about the AC50 [8] of the same molecule?
Its AC50 is 25.1 µM (inconclusive).

Which EC50 [15] does the source give for `O=C(Nc1cc(Cl)ccc1-n1cncn1)c1ccc([N+](=O)[O-])s1` here?
Its EC50 is > 60 µM (not active).

And the EC50 [16]?
Its EC50 is 0.207 µM (active).

What about the AC50 [10] of the same molecule?
The AC50 was 3.72 µM (active).

Which GI50 [1] does the source give for `CCCCCC(O)C1C(=O)OC(C)C(O)/C=C/C=C/C=C/C=C/C=C(\C)C(O)C(O)C(O)CC(O)CC(O)CC(O)CC(O)CC1O` (configuration not stated) here?
Its GI50 is 1.44 µM (inactive).

And the GI50 [2]?
Its GI50 is 1.95 µM (inactive).

And the GI50 [3]?
Its GI50 is 0.904 µM (active).
